Assay results as given in patent US6737383B1, “Herbicidal oxadiazolidines” (priority 1999, dated 2004).

Columns and labels:
cocklebur = assay: Test B pre/postemergence cocklebur; type: in vivo, Xanthium strumarium
Outline: (§1)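 Herbicidal effect was estimated by eye on a ten-point control scale after plants spent twelve to sixteen days in a greenhouse following soil or foliar treatment. Foliar sprays targeted plants at one to four leaves; all doses were formulated in a non-phytotoxic solvent with surfactant.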

wild oat = assay: Test B pre/postemergence wild oat; type: in vivo, Avena fatua
Outline: as §1

rape = assay: Test B pre/postemergence rape; type: in vivo, Brassica napus
Outline: as §1

morningglory = assay: Test B pre/postemergence morningglory; type: in vivo, Ipomoea hederacea
Outline: as §1

pigweed = assay: Test B pre/postemergence pigweed; type: in vivo, Amaranthus retroflexus
Outline: as §1

bamyardgrass = assay: Test B flood test barnyardgrass; type: in vivo, Echinochloa crus-galli
Outline: (§2)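 Read-out is a visual response score from 0 (no effect) to 10 (complete control), assigned by comparison with untreated controls. Treatment was applied at the 2-leaf stage, and plants stayed in the greenhouse for twelve to sixteen days before scoring.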

duck salad = assay: Test B flood test duck salad; type: in vivo, Heteranthera limosa
Outline: as §2

crabgrass = assay: Test B pre/postemergence crabgrass; type: in vivo, Digitaria sanguinalis
Outline: as §1

bedstraw = assay: Test B pre/postemergence bedstraw; type: in vivo, Galium aparine
Outline: as §1

velvetleaf = assay: Test B pre/postemergence velvetleaf; type: in vivo, Abutilon theophrasti
Outline: as §1

corn = assay: Test B pre/postemergence corn; type: in vivo, Zea mays
Outline: as §1

sugar beet = assay: Test B pre/postemergence sugar beet; type: in vivo, Beta vulgaris
Outline: as §1

rice = assay: Test B flood test rice; type: in vivo, Oryza sativa
Outline: as §2

smallflower flatsedge = assay: Test B flood test smallflower flatsedge; type: in vivo, Cyperus difformis
Outline: as §2

surinam grass = assay: Test B pre/postemergence surinam grass; type: in vivo, Brachiaria decumbens
Outline: as §1

soybean = assay: Test B pre/postemergence soybean; type: in vivo, Glycine max
Outline: as §1

[1] = Postemergence, Rate 62 g/ha, scale of 0 to 10, 0 is no effect, 10 is complete control
[2] = Postemergence, Rate 125 g/ha, scale of 0 to 10 where 0 is no effect and 10 is complete control
[3] = Postemergence, Rate 250 g/ha, scale of 0 to 10, 0 is no effect, 10 is complete control
[4] = Postemergence, Rate 500 g/ha, scale of 0 to 10 where 0 is no effect and 10 is complete control
[5] = Preemergence, Rate 62 g/ha, scale 0 to 10 (0 no effect, 10 complete control)
[6] = Preemergence, Rate 125 g/ha, scale of 0 to 10 where 0 is no effect and 10 is complete control
[7] = Preemergence, Rate 500 g/ha, scale of 0 to 10 where 0 is no effect and 10 is complete control
[8] = Rate 62 g/ha, flood test species, Pre-emergence, visual evaluation after twelve to sixteen days
[9] = Rate 125 g/ha, under heading Pre-emergence, flood test species, visual evaluation after twelve to sixteen days
[10] = Rate 250 g/ha, Pre-emergence (flood test species), scale 0 to 10, 0 is no effect, 10 is complete control
[11] = Rate 500 g/ha, Pre-emergence section of Table B, 0 to 10 scale (0 no effect, 10 complete control)

CC(C)N(C(=O)n1oc(=O)n(CC(=O)C(F)(F)F)c1=O)c1ccc(F)cc1F [Compound 598]
0: Cocklebur plant response rating (cocklebur; [1]) | Plant response rating, Cocklebur (cocklebur; [2]) | Cocklebur plant response rating (cocklebur; [3]) | Plant response rating, Cocklebur (cocklebur; [4]) | Cocklebur plant response rating (cocklebur; [5]) | Cocklebur plant response rating (cocklebur; [6]) | Cocklebur plant response rating (0 to 10 scale) (cocklebur; Preemergence, Rate 250 g/ha) | Plant response rating, Cocklebur (cocklebur; [7]) | Plant response rating, Wild oats (wild oat; [2]) | Wild oats plant response rating (wild oat; [3]) | Plant response rating, Wild oats (wild oat; [4]) | Wild oats plant response rating (wild oat; [5]) | Wild oats plant response rating (wild oat; [6]) | Plant response rating, Wild oats (wild oat; [7]) | Rape plant response rating (rape; [1]) | Plant response rating, Rape (rape; [2]) | Rape plant response rating (rape; [3]) | Plant response rating, Rape (rape; [4]) | Rape plant response rating (rape; [5]) | Rape plant response rating (rape; [6]) | Plant response rating, Rape (rape; [7]) | Morningglory plant response rating (morningglory; [1]) | Plant response rating, Morningglory (morningglory; [2]) | Morningglory plant response rating (morningglory; [3]) | Plant response rating, Morningglory (morningglory; [4]) | Morningglory plant response rating (morningglory; [5]) | Morningglory plant response rating (morningglory; [6]) | Plant response rating, Morningglory (morningglory; [7]) | Plant response rating, Redroot pigweed (pigweed; [2]) | Redroot pigweed plant response rating (pigweed; [3]) | Plant response rating, Redroot pigweed (pigweed; [4]) | Redroot pigweed plant response rating (pigweed; [5]) | Redroot pigweed plant response rating (pigweed; [6]) | Plant response rating, Redroot pigweed (pigweed; [7]) | Plant response rating, Barnyardgrass (0 to 10 scale, 0 is no effect, 10 is complete control) (bamyardgrass; [8]) | Barnyardgrass plant response rating (0 to 10 scale, 0 is no effect, 10 is complete control) (bamyardgrass; [9]) | Barnyardgrass plant response rating (bamyardgrass; [10]) | Barnyardgrass plant response rating (bamyardgrass; [11]) | Plant response rating, Ducksalad (0 to 10 scale, 0 is no effect, 10 is complete control) (duck salad; [8]) | Ducksalad plant response rating (0 to 10 scale, 0 is no effect, 10 is complete control) (duck salad; [9]) | Ducksalad plant response rating (duck salad; [10]) | Ducksalad plant response rating (duck salad; [11]) | Crabgrass plant response rating (crabgrass; [1]) | Plant response rating, Crabgrass (crabgrass; [2]) | Crabgrass plant response rating (crabgrass; [3]) | Plant response rating, Crabgrass (crabgrass; [4]) | Crabgrass plant response rating (crabgrass; [5]) | Crabgrass plant response rating (crabgrass; [6]) | Plant response rating, Crabgrass (crabgrass; [7]) | Bedstraw plant response rating (bedstraw; [1]) | Plant response rating, Bedstraw (bedstraw; [2]) | Bedstraw plant response rating (bedstraw; [5]) | Bedstraw plant response rating (bedstraw; [6]) | Bedstraw plant response rating (0 to 10 scale) (bedstraw; Preemergence, Rate 250 g/ha) | Bedstraw plant response rating (bedstraw; [7]) | Plant response rating, Velvetleaf (velvetleaf; [2]) | Velvetleaf plant response rating (velvetleaf; [3]) | Plant response rating, Velvetleaf (velvetleaf; [4]) | Velvetleaf plant response rating (velvetleaf; [5]) | Velvetleaf plant response rating (velvetleaf; [6]) | Plant response rating, Velvetleaf (velvetleaf; [7]) | Corn plant response rating (corn; [1]) | Plant response rating, Corn (corn; [2]) | Corn plant response rating (corn; [3]) | Plant response rating, Corn (corn; [4]) | Corn plant response rating (corn; [5]) | Corn plant response rating (corn; [6]) | Corn plant response rating (0 to 10 scale) (corn; Preemergence, Rate 250 g/ha) | Plant response rating, Corn (corn; [7]) | Plant response rating, Sugarbeets (sugar beet; [2]) | Sugarbeets plant response rating (sugar beet; [3]) | Plant response rating, Sugarbeets (sugar beet; [4]) | Sugarbeets plant response rating (sugar beet; [5]) | Sugarbeets plant response rating (sugar beet; [6]) | Plant response rating, Sugarbeets (sugar beet; [7]) | Plant response rating, Rice (0 to 10 scale, 0 is no effect, 10 is complete control) (rice; [8]) | Rice plant response rating (0 to 10 scale, 0 is no effect, 10 is complete control) (rice; [9]) | Rice plant response rating (rice; [10]) | Rice plant response rating (rice; [11]) | Plant response rating, S. Flatsedge (0 to 10 scale, 0 is no effect, 10 is complete control) (smallflower flatsedge; [8]) | S. Flatsedge plant response rating (0 to 10 scale, 0 is no effect, 10 is complete control) (smallflower flatsedge; [9]) | S. Flatsedge plant response rating (smallflower flatsedge; [10]) | S. Flatsedge plant response rating (smallflower flatsedge; [11]) | B. signalgrass plant response rating (surinam grass; [1]) | Plant response rating, B. signalgrass (surinam grass; [2]) | B. signalgrass plant response rating (surinam grass; [3]) | Plant response rating, B. signalgrass (surinam grass; [4]) | B. signalgrass plant response rating (surinam grass; [5]) | B. signalgrass plant response rating (surinam grass; [6]) | B. signalgrass plant response rating (0 to 10 scale, 0 is no effect, 10 is complete control) (surinam grass; Preemergence, Rate 250 g/ha) | B. signalgrass plant response rating (surinam grass; [7]) | Plant response rating, Soybean (soybean; [2]) | Soybean plant response rating (soybean; [3]) | Plant response rating, Soybean (soybean; [4]) | Soybean plant response rating (soybean; [5]) | Soybean plant response rating (soybean; [6]) | Plant response rating, Soybean (soybean; [7])
